From patent publication US4803227A, “Aminoalkyl ethers of phenols as anticancer agents for the breast and colon” (The University of Manitoba, priority 1984, dated 1989)
Structures can show the parent of a compound that is named as a salt. Where two headings read alike, the source gives them in different places. Each block holds one compound with its values, some of them ahead of it.

Assays:
[1] = molecular target: AEBS (anti-estrogen binding site), MCF-7 microsomes; test: competition with [3H]-tamoxifen for AEBS, MCF-7 microsomes; design: species or system human; details: for IC50: read-out: RSBA (M) for AEBS, MCF-7 microsomes
From the text: (§1) *Relative specific binding affinity (RSBA) is the concentration of cold
(§2) competitor required to displace 50% of the specifically bound label and
(§3) expresses the affinity of the test compound for the receptor relative to
(§4) that of the labelled specific ligand, in this instance 1.5 ×

[2] = tested on: MCF-7 human breast cancer cells; test: cells; details: for IC90: Homo sapiens, MCF7, 168 h, read-out: D10 (concentration required to effect a 90% reduction in the number of MCF7 cells)
Description: Concentrations are shown on the x-axis. […] A longer exposure time (10 days) was employed because this cell line is slower growing than the MCF-7 cell line.
In the case of MCF-7 cells, approximately 2×10^4 MCF-7 cells were seeded into duplicate 25 cm tissue culture flasks containing Dulbecco's modified Eagle's medium supplemented with insulin (10 μg/ml), glucose ([…])and 5% dextran coated charcoal-stripped fetal calf serum to which was added increasing concentrations of the compound to be tested. Cells were allowed to grow for 7 days with one change of medium containing the test compound on day 4. […] Total cell number at each concentration was determined by Coulter counter. […] D (that concentration required to elicit a 90% reduction in cell number relative to the control after 7 days of treatment) was determined for each compound.

estrogen receptor (ER) [3] = test: competition with [3H] 17 β-estradiol for ER; format: binding
colon carcinoma (3C872) = test: colon tumor test in female rats implanted with colon carcinoma (3C872); format: in vivo; details: for Tumor wt % of Controls / Tumor Evaluation (wt. mg): intramuscular, twice daily for 7 days; for Tumor Evaluation (wt. mg): control 2261
Description: The rats had been subcutaneously implanted with colon carcinoma (3C872) and were cancerous. […] The wt. of the tumor was measured after the 7-day treatment and reported as a % (average) of the control tumor wt. (average) using 40 control rats.

[4] = molecular target: AEBS (anti-estrogen binding site), rat liver microsomes; test: competition with [3H]-tamoxifen for AEBS, rat liver microsomes; details: concentration of cold competitor required to displace 50% of specifically bound label, 1.5 × 10^-9 M [3H]-tamoxifen; read-out: RSBA (M) for AEBS, Rat liver microsomes
From the text: as §1, §2, §3, §4

[5] = tested on: progesterone receptor (PgR) in MCF-7 cells; test: induction of progesterone receptor (PgR) synthesis in MCF-7 cells; format: cell-based, human; details: 5 days of pre-incubation, 1×10^-8 M
MCF-7 cells = details: 7 days; for reversal of growth inhibition by estradiol: 1×10^-8 M estradiol; for inhibition of growth of MCF-7 cells: tamoxifen 5×10^-7 M, N,N-DPPE 1x-8x tamoxifen concentration
estrogen receptor (ER) [6] = details: literature; cited from earlier work
[7] = literature; cited from earlier work
[8] = concentration of cold competitor required to displace 50% of specifically bound label, 1.5 × 10^-9 M [3H]-tamoxifen
[9] = microsome preparation not given

Structure (SMILES): CCN(CC)CCOc1ccc(Cc2ccccc2)cc1 [N,N-DPPE, N,N-diethyl-2-[(4-phenylmethyl)phenoxy]ethanamine hydrochloride]
Tumor wt % of Controls (colon carcinoma (3C872); 8.00 mg/kg per injection): 80%
Tumor Evaluation (wt. mg) (colon carcinoma (3C872); 8.00 mg/kg per injection): 1817 mg
Tumor wt % of Controls (colon carcinoma (3C872); 16.00 mg/kg per injection): 99%
Tumor Evaluation (wt. mg) (colon carcinoma (3C872); 16.00 mg/kg per injection): 2259 mg
Tumor wt % of Controls (colon carcinoma (3C872); 32.00 mg/kg per injection): 68%
Tumor Evaluation (wt. mg) (colon carcinoma (3C872); 32.00 mg/kg per injection): 1557 mg
reduction in tumor growth (colon carcinoma (3C872); 32 mg/kg, 7 days): 30%
optimal dosage (colon carcinoma (3C872); 7-day test): 30 to 40 mg/kg
results at higher doses (colon carcinoma (3C872); above 60 mg/kg): results became poorer
IC50 [1, 8]: 7e-07 M
binding to AEBS [1, 9]: bind significantly to AEBS
IC90 [2]: 16 µM
IC50 [4]: 4e-08 M
induction of PgR synthesis above control levels [5]: failure to induce significant syn thesis of progesterone receptor (PgR) above control levels
reversal of growth inhibition by estradiol (MCF-7 cells): no significant reversal of its effect by estradiol
inhibition of growth of MCF-7 cells (MCF-7 cells; absence of estradiol): significant growth inhibition, but in all cases, less than that for tamoxifen
inhibition of growth of MCF-7 cells (MCF-7 cells; presence of estradiol): significantly (P<0.001) more inhibition than tamoxifen

Structure (SMILES): C(=C(c1ccccc1)c1ccccc1)c1ccccc1 [Triphenylethylene, triphenylethylene, reference compound]
competition with [3H]-tamoxifen for AEBS ([1]; at all concentrations tested, microsome preparation not given): fails to compete with [^3 H]-tamoxifen for AEBS
RSBA (M) for AEBS, MCF-7 microsomes [1, 8]: No affinity
cytotoxic effect on MCF-7 cells [2]: no cytotoxic effect on MCF-7 cells after 7 days of exposure
D10 (concentration required to effect a 90% reduction in the number of MCF7 cells) ([2]; 7 days of exposure): No effect
competition with [3H] 17 β-estradiol for ER (estrogen receptor (ER) [3]; at higher concentrations): competes with [^3 H] 17 β-estradiol for ER

Structure (SMILES): CC/C(=C(\c1ccccc1)c1ccc(OCCN(C)C)cc1)c1ccccc1 [Tamoxifen, 1-(p-β-dimethylaminoethoxyphenyl)-trans-1,2-diphenylbut-1-ene, reference compound]
IC90 [2]: 4.8 µM
competition for the estrogen receptor (estrogen receptor (ER) [6]): compete for the estrogen receptor (ER)
reversal of growth inhibition by estradiol (MCF-7 cells): largely but not completely reversed by the addition of 1×10^-8 M estradiol
inhibition of growth of MCF-7 cells (MCF-7 cells; absence of estradiol): Significant inhibition

Now from value to compound, other results behind:

IC50 [1, 8]: 6.6e-07 M
binding to AEBS [1, 9]: bind significantly to AEBS
IC90 [2]: 16 µM
binding to ER (estrogen receptor (ER) [3]): only weakly to ER
Structure (SMILES): c1ccc(Cc2ccc(OCCN3CCOCC3)cc2)cc1 [MPPE, N-morpholino-2-[(4-phenylmethyl)phenoxy]ethanamine hydrochloride]

IC50 [1, 8]: 8e-05 M
IC90 [2]: 1100 µM
IC50 [4]: 4e-05 M
Structure (SMILES): CCN(CC)CCOc1ccccc1 [N,N-DPEA, N,N-diethyl-2-phenoxyethylamine hydrochloride, reference compound]

IC90 [2]: 48 µM
IC50 [4]: 2e-06 M
Structure (SMILES): CN(C)CCOc1ccccc1Cc1ccccc1 [Phenyltoloxamine, N,N-dimethyl-2[(2-phenylmethyl)phenoxy]ethanamine, reference compound]
concentrations at which compound becomes significantly cytotoxic for MCF-7 cells ([2]; human, 10080 min): > 100 µM
anti-histamine effects [7]: pronounced anti-histamine effects
